Measurements reported in patent US9266835B2, “Quinoline derivatives useful as CB-1 inverse agonists” (JANSSEN PHARMACEUTICA NV, priority 2014, dated 2016).
Like-named read-outs stand apart in the source and are kept apart here.

Columns and labels:
Assay type in all cases: in vivo
[1] = Chronic DIO Mouse, first study (food intake, body weight, insulin tolerance test, glucose tolerance test, plasma insulin, fed blood glucose); settings: DIO mice; for Insulin Tolerance Test, Blood Glucose AUC: day 19; for Intraperitoneal Glucose Tolerance Test Blood Glucose AUC: day 23
Experimental: Male 14-20-week old diet-induced obese mice were ordered from Taconic. Mice were started on a 60% fat diet (D12492, Research Diets, New Brunswick, N.J.) at 6 weeks of age. Mice were single-housed.
(§1) Test compounds were formulated in 10% PEG400 and 10% solutol. Test compounds were administered by oral gavage (5 ml kg^−1).
The test compound was formulated in 10% PEG400 and 10% solutol. DIO mice received vehicle, test compound (@ 1, 3 and 10 mg/kg) daily for 26 days. At the end of the experiment, the mice were euthanized and blood and tissues were collected.
Body weight and food weight (food intake) were monitored daily for days 1-5 and twice weekly thereafter. Fed blood glucose was measured weekly.
An insulin tolerance test (0.5 U/kg Humulin, ip) was performed on day 19 after a 4 hour food removal. Blood glucose was measured at 0, 15, 30, 60 and 120 minutes after insulin. […] Blood glucose was measured at 0, 30, 60 and 120 minutes after glucose challenge.
Blood glucose was measured from the tail vein with a Lifescan glucometer. Plasma insulin was measured with an ELISA or HTRF kit (Cisbio). Plasma parameters were measured with an Olympus clinical chemistry analyzer.
Compound #44 was tested according to the procedure as described above, with results as listed in Table BIO-4A through Table BIO4-G, below.

[2] = Mouse Fast PK/BBB (plasma and brain concentration); settings: male, C57bl/6j, oral, N=3 (dose given as 30 mg/kg and 20 mg/kg)
Source text: Male Sprague Dawley rats were ordered from Charles River (225-250 gm upon arrival). They were fed standard chow diet (Purina 5001) and housed 2 per cage. Male C57bl/6j mice were ordered from Charles River at 22-25 g and housed 3 per cage. They were fed standard chow (Purina 5001). All animals were housed in a temperature-controlled room with 12-hour light/dark cycle. Animals were given food and water ad libitum, except as noted.
as §1
Male C57bl/6j mice were dosed with test compounds at 30 mg/kg. Plasma was collected via retro-orbital bleeding at 1 hr and 4 hrs after dosing. Whole brain without cerebellum was collected at 4 hrs after dosing. Wet brain weight was recorded before freezing. Brains were homogenized in saline and sent for analysis for determination of concentration of test compound.
Table BIO-3 below present results for representative compounds of the present invention, tested according to the procedure as described above. Each compound was tested in three animals (N=3) and administered PA at 20 mg/kg

[3] = Mouse Fast PK/BBB (plasma and brain concentration); settings: male, C57bl/6j, brain, oral, N=3 (dose given as 30 mg/kg and 20 mg/kg), read-out: BRAIN Mean Conc. ± Std. Dev

Question: For `O=c1cc(NC2CCN(S(=O)(=O)C(F)(F)F)CC2)c2cc(C(c3ccc(Cl)cc3)c3ccc(Cl)cc3)ccc2[nH]1` [Compound #44, 6-(bis(4-chlorophenyl)methyl)-4-(1-(trifluoromethylsulfonyl)piperidin-4-ylamino)quinolin-2(1H)-one], which “Mean Body Weight (Std Err)” value ([1]; 3 mg/kg daily, Day 11) is on record?
Answer: The value was 40.15 (0.74) Grams.

Question: What about the “Mean Daily Food Intake (Std Err)” value ([1]; 3 mg/kg daily, Day 11) of the same molecule?
Answer: The value was 1.95 (0.11) Grams.

Question: And the “Insulin Tolerance Test, Blood Glucose AUC” value ([1]; 3 mg/kg daily)?
Answer: The value was 16879.5 mg·min/dL.

Question: And the “Insulin Tolerance Test Mean Blood Glucose (Std Err)” value ([1]; 3 mg/kg daily, day 19, 0 min after insulin)?
Answer: The value was 189.4 (7.3) mg/dL.

Question: And the “Insulin Tolerance Test Mean Blood Glucose (Std Err)” value ([1]; 3 mg/kg daily, day 19, 15 min after insulin)?
Answer: Its value is 178.8 (12.5) mg/dL.

Question: What about the “Insulin Tolerance Test Mean Blood Glucose (Std Err)” value ([1]; 3 mg/kg daily, day 19, 30 min after insulin) of the same molecule?
Answer: The value was 121.4 (13.7) mg/dL.

Question: And the “Insulin Tolerance Test Mean Blood Glucose (Std Err)” value ([1]; 3 mg/kg daily, day 19, 60 min after insulin)?
Answer: The value was 119.7 (9.6) mg/dL.

Question: What about the “Insulin Tolerance Test Mean Blood Glucose (Std Err)” value ([1]; 3 mg/kg daily, day 19, 120 min after insulin) of the same molecule?
Answer: Its value is 155.3 (9.5) mg/dL.

Question: And the “Intraperitoneal Glucose Tolerance Test Blood Glucose AUC” value ([1]; 3 mg/kg daily)?
Answer: Its value is 29983.1 mg·min/dL.

Question: And the “Intraperitoneal Glucose Tolerance Test Mean Blood Glucose (Std Err)” value ([1]; 3 mg/kg daily, day 23, 0 min after glucose)?
Answer: The value was 161.8 (5.0) mg/dL.

Question: And the “Intraperitoneal Glucose Tolerance Test Mean Blood Glucose (Std Err)” value ([1]; 3 mg/kg daily, day 23, 30 min after glucose)?
Answer: Its value is 352.0 (22.6) mg/dL.

Question: What about the “Intraperitoneal Glucose Tolerance Test Mean Blood Glucose (Std Err)” value ([1]; 3 mg/kg daily, day 23, 60 min after glucose) of the same molecule?
Answer: Its value is 264.6 (25.6) mg/dL.

Question: And the “Intraperitoneal Glucose Tolerance Test Mean Blood Glucose (Std Err)” value ([1]; 3 mg/kg daily, day 23, 120 min after glucose)?
Answer: Its value is 169.6 (9.2) mg/dL.

Question: And the “Fed Blood Glucose” value ([1]; 10 mg/kg daily oral, Day 0, mean (Std Err))?
Answer: Its value is 161.88 (6.71) mg/dL.

Question: What about the “Fed Blood Glucose” value ([1]; 10 mg/kg daily oral, Day 18, mean (Std Err)) of the same molecule?
Answer: The value was 154.00 (5.53) mg/dL.

Question: And the “Plasma Insulin” value ([1]; 10 mg/kg daily oral, mean (Std Err))?
Answer: The value was 2.14 (0.3) ng/mL.

Question: What about the “Mean Body Weight (Std Err)” value ([1]; 10 mg/kg daily, Day 1) of the same molecule?
Answer: The value was 43.26 (0.40) Grams.

Question: What about the “Mean Body Weight (Std Err)” value ([1]; 10 mg/kg daily, Day 2) of the same molecule?
Answer: Its value is 42.39 (0.36) Grams.

Question: What about the “Mean Daily Food Intake (Std Err)” value ([1]; 10 mg/kg daily, Day 2) of the same molecule?
Answer: Its value is 2.24 (0.10) Grams.

Question: And the “Mean Body Weight (Std Err)” value ([1]; 10 mg/kg daily, Day 3)?
Answer: The value was 41.61 (0.41) Grams.

Question: What about the “Mean Daily Food Intake (Std Err)” value ([1]; 10 mg/kg daily, Day 3) of the same molecule?
Answer: Its value is 2.29 (0.16) Grams.

Question: What about the “Mean Body Weight (Std Err)” value ([1]; 10 mg/kg daily, Day 4) of the same molecule?
Answer: The value was 40.76 (0.37) Grams.

Question: What about the “Mean Daily Food Intake (Std Err)” value ([1]; 10 mg/kg daily, Day 4) of the same molecule?
Answer: The value was 1.70 (0.08) Grams.

Question: What about the “Mean Body Weight (Std Err)” value ([1]; 10 mg/kg daily, Day 5) of the same molecule?
Answer: Its value is 40.17 (0.39) Grams.

Question: And the “Mean Daily Food Intake (Std Err)” value ([1]; 10 mg/kg daily, Day 5)?
Answer: The value was 1.58 (0.11) Grams.

Question: What about the “Mean Body Weight (Std Err)” value ([1]; 10 mg/kg daily, Day 8) of the same molecule?
Answer: Its value is 38.16 (0.48) Grams.

Question: What about the “Mean Daily Food Intake (Std Err)” value ([1]; 10 mg/kg daily, Day 8) of the same molecule?
Answer: The value was 1.80 (0.12) Grams.

Question: What about the “Mean Body Weight (Std Err)” value ([1]; 10 mg/kg daily, Day 10) of the same molecule?
Answer: Its value is 37.47 (0.56) Grams.

Question: And the “Mean Daily Food Intake (Std Err)” value ([1]; 10 mg/kg daily, Day 10)?
Answer: Its value is 2.02 (0.13) Grams.

Question: And the “Mean Body Weight (Std Err)” value ([1]; 10 mg/kg daily, Day 11)?
Answer: The value was 36.67 (0.55) Grams.

Question: What about the “Mean Daily Food Intake (Std Err)” value ([1]; 10 mg/kg daily, Day 11) of the same molecule?
Answer: Its value is 1.94 (0.11) Grams.

Question: And the “Insulin Tolerance Test, Blood Glucose AUC” value ([1]; 10 mg/kg daily)?
Answer: Its value is 14258.3 mg·min/dL.

Question: And the “Insulin Tolerance Test Mean Blood Glucose (Std Err)” value ([1]; 10 mg/kg daily, day 19, 0 min after insulin)?
Answer: Its value is 163.5 (5.9) mg/dL.

Question: And the “Insulin Tolerance Test Mean Blood Glucose (Std Err)” value ([1]; 10 mg/kg daily, day 19, 15 min after insulin)?
Answer: The value was 138.4 (20.0) mg/dL.

Question: What about the “Insulin Tolerance Test Mean Blood Glucose (Std Err)” value ([1]; 10 mg/kg daily, day 19, 30 min after insulin) of the same molecule?
Answer: Its value is 96.2 (11.0) mg/dL.

Question: And the “Insulin Tolerance Test Mean Blood Glucose (Std Err)” value ([1]; 10 mg/kg daily, day 19, 60 min after insulin)?
Answer: Its value is 99.7 (9.7) mg/dL.

Question: What about the “Insulin Tolerance Test Mean Blood Glucose (Std Err)” value ([1]; 10 mg/kg daily, day 19, 120 min after insulin) of the same molecule?
Answer: Its value is 143.5 (8.3) mg/dL.

Question: What about the “Intraperitoneal Glucose Tolerance Test Blood Glucose AUC” value ([1]; 10 mg/kg daily) of the same molecule?
Answer: The value was 25680.0 mg·min/dL.

Question: What about the “Intraperitoneal Glucose Tolerance Test Mean Blood Glucose (Std Err)” value ([1]; 10 mg/kg daily, day 23, 0 min after glucose) of the same molecule?
Answer: The value was 141.6 (6.5) mg/dL.

Question: What about the “Intraperitoneal Glucose Tolerance Test Mean Blood Glucose (Std Err)” value ([1]; 10 mg/kg daily, day 23, 30 min after glucose) of the same molecule?
Answer: The value was 319.1 (26.9) mg/dL.

Question: What about the “Intraperitoneal Glucose Tolerance Test Mean Blood Glucose (Std Err)” value ([1]; 10 mg/kg daily, day 23, 60 min after glucose) of the same molecule?
Answer: Its value is 225.1 (20.3) mg/dL.

Question: And the “Intraperitoneal Glucose Tolerance Test Mean Blood Glucose (Std Err)” value ([1]; 10 mg/kg daily, day 23, 120 min after glucose)?
Answer: Its value is 128.4 (5.7) mg/dL.

Question: And the concentration at 4 h ([2]; brain, read-out: BRAIN Mean Conc. ± Std. Dev)?
Answer: Its concentration at 4 h is 11.8 ± 8.99 ng/mL.

Question: And the concentration at 1 h ([2]; plasma, 1 hr, read-out: PLASMA Mean Conc. ± Std. Dev)?
Answer: The concentration at 1 h was 1050 ± 122 ng/mL.

Question: And the concentration at 4 h ([2]; plasma, read-out: PLASMA Mean Conc. ± Std. Dev)?
Answer: Its concentration at 4 h is 1180 ± 148 ng/mL.

Question: And the concentration at 1 h [3]?
Answer: The concentration at 1 h was 7.62 ± 2.28 ng/mL.
